The values below are quoted from earlier work in patent US6774131B1, “Remedies for endothelin-induced diseases” (Yamanouchi Pharmaceutical Co., Ltd., priority 2000, dated 2004).

For data set [1] the following is noted: 20 mg; 6th International Conference on Endothelin, Abstract No. 219; cited from earlier work.
A further data set deals with prostate cancer patients. The conditions noted are these: reported, Proceeding of ASCO,19,1314,2000; cited from earlier work.

The structures appear in SMILES notation.

For orientation: AUC means concentration integrated over time. The Cmax is the highest concentration seen after dosing. Consider `CCCCN(CCCC)C(=O)CN1C[C@H](c2ccc3c(c2)OCO3)[C@@H](C(=O)O)[C@@H]1c1ccc(OC)cc1` [ABT-627, 1-(N,N-dibutylcarbamoylmethyl)-2(R)-(4-methoxyphenyl)-4(S)-(3,4-methylenedioxyphenyl)pyrrolidine-3(R)-carboxylic acid], for which, in data set [1], the AUC was 802 ng·h/mL, the Cmax was 93.5 ng/mL, the T max is listed as 0.6 h and the “T ½” value is given as 28.4 h. The minimum effective dose in the data set with prostate cancer patients is 10 mg.
